Measurements: US6908935B2, “Calcium receptor modulating agents” (Amgen Inc., priority 2002, dated 2005)

Target: T1, human parathyroid cell Ca^2+ receptor (hPCaR) (Homo sapiens, UniProt P41180)
T1 construct: expressed in transfected cells
T1 sequence (P41180 20-1078): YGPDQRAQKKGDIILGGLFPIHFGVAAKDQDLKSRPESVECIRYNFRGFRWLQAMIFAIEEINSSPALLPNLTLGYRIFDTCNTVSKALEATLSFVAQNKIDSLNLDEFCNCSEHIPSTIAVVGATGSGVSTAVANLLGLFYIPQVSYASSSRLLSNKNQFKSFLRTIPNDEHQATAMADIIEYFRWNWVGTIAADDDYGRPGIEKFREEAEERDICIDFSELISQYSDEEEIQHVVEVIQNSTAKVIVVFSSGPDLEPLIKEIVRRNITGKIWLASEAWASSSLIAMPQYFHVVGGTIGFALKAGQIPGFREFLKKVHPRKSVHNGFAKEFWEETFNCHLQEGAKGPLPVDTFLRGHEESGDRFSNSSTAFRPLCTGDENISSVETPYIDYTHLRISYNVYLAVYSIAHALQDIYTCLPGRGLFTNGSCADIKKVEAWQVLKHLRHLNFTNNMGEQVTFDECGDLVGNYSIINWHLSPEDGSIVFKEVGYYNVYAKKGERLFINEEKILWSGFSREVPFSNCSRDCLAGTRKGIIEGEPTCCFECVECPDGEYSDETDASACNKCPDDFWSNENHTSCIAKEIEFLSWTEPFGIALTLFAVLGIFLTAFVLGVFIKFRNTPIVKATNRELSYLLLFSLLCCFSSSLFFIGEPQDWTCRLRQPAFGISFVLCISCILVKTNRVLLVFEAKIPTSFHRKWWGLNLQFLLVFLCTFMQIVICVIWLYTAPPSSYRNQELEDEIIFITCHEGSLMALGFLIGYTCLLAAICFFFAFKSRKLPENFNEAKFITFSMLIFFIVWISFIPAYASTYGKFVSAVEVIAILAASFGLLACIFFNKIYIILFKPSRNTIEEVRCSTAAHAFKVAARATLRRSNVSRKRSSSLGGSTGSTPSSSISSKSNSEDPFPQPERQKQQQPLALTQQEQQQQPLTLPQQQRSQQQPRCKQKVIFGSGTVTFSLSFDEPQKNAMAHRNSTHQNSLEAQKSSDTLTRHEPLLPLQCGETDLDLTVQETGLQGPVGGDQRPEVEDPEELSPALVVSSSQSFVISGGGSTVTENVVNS
Experiment: [Ca2+]i measurement with fluo-3 in HEK 293 4.0-7 cells stably transfected with hPCaR
Format: cell-based
Conditions: fluo-3 fluorescence (485/530 nm), effect on [Ca^2+]i
Summary of the method: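 HEK 293 cells stably expressing human parathyroid Ca2+ receptor (clone 4.0-7), loaded with 2 μM fluo-3 AM for 30 min at 37 °C in parathyroid cell buffer (pH 7.45) with 1 mM CaCl2 and 0.5% BSA. After compound addition, intracellular Ca2+ followed by fluorescence at 485 nm excitation/530 nm emission.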

Compound	EC50 [µM]
CCNC(=O)Nc1ccc(CN[C@H](C)c2cccc(OC)c2)cc1-c1ccc(OC)cc1 [N-ethyl-N′-(4′-(methyloxy)-5-((((1R)-1-(3-(methyloxy)phenyl)ethyl)amino)methyl)-1,1′-biphenyl-2-yl)urea]	≤ 10
CCNC(=O)Nc1ccc(CN[C@H](C)c2ccccc2)cc1-c1ccc(OC)cc1 [N-ethyl-N′-(4′-(methyloxy)-5-((((1R)-1-phenylethyl)amino)methyl)-1,1′-biphenyl-2-yl)urea]	≤ 10
CCOC(=O)c1ccc(-c2cc(CN[C@H](C)c3cccc4ccccc34)ccc2OC)cc1 [ethyl 2′-(methyloxy)-5′-((((1R)-1-(1-naphthalenyl)ethyl)amino)methyl)-1,1′-biphenyl-4-carboxylate]	≤ 10
CCOC(=O)c1ccc(-c2cc(CN[C@H](C)c3cccc(OC)c3)ccc2OC)cc1 [ethyl 2′-(methyloxy)-5′-((((1R)-1-(3-(methyloxy)phenyl)ethyl)amino)methyl)-1,1′-biphenyl-4-carboxylate]	≤ 10
CCOC(=O)c1ccc(-c2cc(CN[C@H](C)c3ccccc3)ccc2OC)cc1 [ethyl 2′-(methyloxy)-5′-((((1R)-1-phenylethyl)amino)methyl)-1,1′-biphenyl-4-carboxylate]	≤ 10
CCOC(=O)N1CCC(c2cc(CN[C@H](C)c3cccc4ccccc34)ccc2OC)CC1 [ethyl 4-(2-(methyloxy)-5-((((1R)-1-(1-naphthalenyl)ethyl)amino)methyl)phenyl)-1-piperidinecarboxylate]	≤ 10
CCOC(=O)N1CC=C(c2cc(CN[C@H](C)c3cccc4ccccc34)ccc2OC)CC1 [ethyl 4-(2-(methyloxy)-5-((((1R)-1-(1-naphthalenyl)ethyl)amino)methyl)phenyl)-3,6-dihydro-1(2H)-pyridinecarboxylate]	≤ 10
CCOC(=O)N1CCC(c2cc(CN[C@H](C)c3cccc(OC)c3)ccc2OC)CC1 [ethyl 4-(2-(methyloxy)-5-((((1R)-1-(3-(methyloxy)phenyl)ethyl)amino)methyl)phenyl)-1-piperidinecarboxylate]	≤ 10
CCOC(=O)N1CCC(c2cc(CN[C@H](C)c3ccccc3)ccc2OC)CC1 [ethyl 4-(2-(methyloxy)-5-((((1R)-1-phenylethyl)amino)methyl)phenyl)-1-piperidinecarboxylate]	≤ 10
